Calls of active or inactive are those of the source.
Assays:
Escherichia coli = test: Antimicrobial activity against Escherichia coli at 50 ug/ml by disk diffusion method; type: functional, organism-based
Staphylococcus aureus = test: Antimicrobial activity against Staphylococcus aureus at 50 ug/ml by disk diffusion method; type: functional, organism-based
Candida albicans = test: Antimicrobial activity against Candida albicans at 50 ug/ml by disk diffusion method; type: functional, organism-based
Panagrellus redivivus = test: Antinematodal activity against Panagrellus redivivus at 100 ug/ml by disk diffusion method; type: functional, organism-based
HL-60 = test: Cytotoxicity against human HL60 cells at 40 uM by MTT assay; type: functional, cell-based
SMMC-7721 = test: Cytotoxicity against human SMMC7721 cells at 40 uM by MTT assay; type: functional, cell-based
A549 = test: Cytotoxicity against human A549 cells at 40 uM by MTT assay; type: functional, cell-based

C=C1[C@@H](O)[C@@H]2[C@H]3[C@H](CC[C@@]2(C)O)[C@@H](C)CC(=O)[C@@]13O
inactive: inhibition (Escherichia coli) | inhibition (Staphylococcus aureus) | inhibition (Candida albicans) | Activity (Panagrellus redivivus) | Activity (HL-60) | Activity (SMMC-7721) | Activity (A549)

C=C1[C@H](O)[C@@H]2[C@H]3[C@H](CC[C@]2(C)O)[C@@H](C)C[C@H](O)[C@@]13O
inactive: inhibition (Escherichia coli) | inhibition (Staphylococcus aureus) | inhibition (Candida albicans) | Activity (Panagrellus redivivus) | Activity (HL-60) | Activity (SMMC-7721) | Activity (A549)

C=C1[C@H](O)[C@@H]2[C@H]3[C@H](CC[C@]2(C)O)[C@@H](C)CC(=O)[C@@]13O
inactive: inhibition (Escherichia coli) | inhibition (Staphylococcus aureus) | inhibition (Candida albicans) | Activity (Panagrellus redivivus) | Activity (HL-60) | Activity (SMMC-7721) | Activity (A549)

— ChEMBL document CHEMBL1687857, “Stereumins H-J, stereumane-type sesquiterpenes from the fungus Stereum sp” (J Nat Prod, 2011)
